Reference: patent publication US20250268980A1, “AN ANTICANCER THERAPY TARGETING RAS AND OTHER ONCOGENIC SIGNALS BY INHIBITION OF DYNAMIC BLEBBING AND/OR SEPTINS” (THE BOARD OF REGENTS OF THE UNIVERSITY OF TEXAS SYSTEM, priority 2022, published 2025)

Experiments:
Type in all cases: cell-based, human
[1] = system: MV3 cells; assay: Caspase activity assay (CellEvent Caspase-3/7) in MV3 cells; settings: detached MV3 cells, 4 h, 10 μg/mL WGA
Method: (§1) Detached/Adhered Cell Culture. […] Drug treatments, solvent-only controls, or CellEvent caspase activity sensor were added to suspensions if appropriate to the experiment, and then immediately transferred to both an uncoated (for detached cells) and ibiTreated (for adhered cells) 8-well ibidi u-slide (ibidi cat #80821 and 80826) at 200 μl/well. Both slides were stored at 37° C. and 5% CO2 for either 24 hours (hrs) for viability assays, 3 hrs for ERK activity assays or 4 hours for caspase activation assays. Uncoated slides (detached) were nutated at 20 rpm during this time. […]
(§2) Viability, ERK Activity, and Caspase ActivityCell Counting Assays. Viability, ERK activity, and caspase activity assays were analyzed using live-cell fluorescent and phase-contrast microscopy, performed on a Nikon Ti microscope equipped with an environmental chamber held at 37° C. and 5% CO2 at 20× magnification. […] Live and dead cells (as identified by significant cellular ethidium signal) were counted using the Cell Counter ImageJ plugin. For ERK activity assays, live cells carrying ERK-nKTR-GFP and H2B-mCherry were imaged after 3 hours of experimental conditions and high/low ERK activity cells were counted with Cell Counter ImageJ plugin. […] Caspase positive and negative cells (as identified by significant cellular CellEvent signal) were counted using the Cell Counter ImageJ plugin.

[2] = system: ERK; assay: ERK activity assay with ERK-nKTR-GFP biosensor in MV3 cells
Method: as §1, §2

[3] = system: PI3K; assay: PI3K activity with Akt-PH-GFP biosensor in MV3 cells; settings: rounded, poorly-adhered MV3 cells
Method: Cells Embedded in 3D Collagen.
Cells Grown in VitroGel Coffins. VitroGel coffins were prepared by embedding MV3 or A375 cells in VitroGel 3D or RGD at 1:1 dilution according to manufacturer's instructions (TheWell Biosciences, sku #TWG001). […] A 1:1 solution of VitroGel and VitroGel Dilution Solution was made and added to cell suspension at a ratio of 4:1 (VitroGel: cells) using gentle pipetting until well-mixed (with care taken not to form bubbles). Cell/VitroGel solution was transferred to an 8-well uncoated ibidi μ-slide (ibidi cat #80821) at 100 μl/well, spread over the bottom of wells with a pipette tip, and allowed to polymerize at room temperature for 15 minutes. […]
Cortical septin levels were quantified by measuring the mean cytoplasmic intensity of each cell using hand-drawn ROIs that excluded nuclei (performed with the FIJI ImageJ package), and then calculating for each cell its fraction of cortical voxels (intracellular voxels within 0.96 μm of the u-Shape3D-derived surface) that were higher than that cell's mean cytoplasmic intensity (performed using a MATLAB script). […] To quantify PI3K biosensor fluorescence signal, cells were segmented with u-shape3D and the intracellular signal was summed across the z-axis to yield a sum projection image (performed with the FIJI ImageJ package). […]

wheat germ agglutinin [WGA]
caspase activation [1]: consistent and specific increase of caspase activation

O=C(Nc1ccccc1)Nc1ccnc(Cl)c1 [FCF, forchlorfenuron]
ERK signaling ([2]; adhered MV3, 3 hours of FCF): no difference in ERK signaling compared to controls | ERK activation ([2]; detached MV3, 3 hours of FCF): significantly reduced | PI3K activity [3]: PI3K activity fell significantly
